We go through 2 molecules from US20200346047A1, “METHOD AND KIT FOR HOME CONTROLLED OVARIAN STIMULATION FOR IN VITRO FERTILIZATION” (priority 2019, published 2020).

Values joined by “and” are separate entries in the source; they are usually repeats but may differ in a detail not shown here. Identical values can stand only once. Square brackets hold non-standard residues; d marks the D form. Peptide text beside a SMILES is read from it. d(hArg(Et2)) = CCN=C(NCC)NCCCC[C@@H](N)C(=O)O; hArg(Et2) = CCN=C(NCC)NCCCC[C@H](N)C(=O)O; dPhe(4-Cl) = N[C@H](Cc1ccc(Cl)cc1)C(=O)O; d2Nal = N[C@H](Cc1ccc2ccccc2c1)C(=O)O; d3Pal = N[C@H](Cc1cccnc1)C(=O)O

Assay [1] deals with LH blood hormone level. Nature of the assay: LH blood level under home controlled ovarian hyperstimulation method with vaginal elagolix (Example 2). The conditions noted are these: lower dose of elagolix taken as a vaginal suppository instead of orally. The class given is in vivo, female patients. The protocol:
On day 9 of the menstrual cycle, the patient is directed to orally take 50 to 150 mg, preferably 100 mg, (one, two, or three 50 mg oral tablets) of clomiphene citrate and to either insert vaginally or take orally, depending on the patient's preference, a gonadotropin-releasing hormone (GnRH) antagonist such as elagolix (marketed as ORILISSA®), instead of the expensive injections of ganirelix acetate (GANIRELEX®) or cetrorelix acetate (marketed as CETROTIDE®) used routinely in conventional practices. A dose of 25 mg (⅛^th of a pill) up to 200 mg of elagolix (1 full pill), preferably 25 mg, will be used, with the dose being the same whether inserted vaginally or taken orally. Elagolix is a GnRH antagonist that is conventionally used in the treatment of pain associated with endometriosis in women, not for the treatment of infertility. By blocking the GnRH receptor, elagolix suppresses LH release by the pituitary gland and thus prevents LH surge. Ultimately, elagolix suppresses gonadal steroid production, thereby reducing circulating levels of sex hormones such as progesterone, estradiol, and testosterone. Elagolix is generally an oral medication (oral tablet), however in the present method, elagolix is a tablet taken mainly as a vaginal suppository, but may be taken orally based on the patient's preference. […]

Assay [2] relates to LH blood hormone level. Nature of the assay: LH blood level under conventional GnRH antagonist injection protocol (Example 1). The class given is in vivo, female patients. How it is done:
Five female patients were treated with a GnRH antagonist protocol requiring injections of medications.
One patient, patient no. 1, was injected with 150 Units of FSH on days 3 to 12; half a syringe of 150 mcg/0.5 mL of ganirelix acetate on days 11 and 12; and 50 mg of clomiphene citrate on days 3 to 12; and 2.5 mg of letrozole on days 3 to 7. Luteinizing hormone (LH) blood level was 4.3 mIU/mL on day 10 and dropped to 2 mIU/mL on day 12.
A second patient, patient no. 2, was injected with 75 Units of FSH on days 4 to 12 and 150 Units on day 13; half a syringe of 150 mcg/0.5 mL of ganirelix acetate on days 11 to 13; 50 mg of clomiphene citrate on days 10 to 12, and 2.5 mg of letrozole on days 3 to 7. Luteinizing hormone (LH) blood level was 12.0 mIU/mL on day 11 and dropped to 6.3 mIU/mL on day 13.
Three patients, numbered 3 to 5, were injected with 75, 150 and 225 Units of FSH, respectively, on days 4 to 12 and one third a syringe of 150 mcg/0.5 mL of ganirelix acetate on days 11 to 13. Patient no. 3 received 50 mg of clomiphene citrate on days 4 to 12, and 2.5 mg of letrozole on days 4 to 8. Patient no. 4 received 100 mg of clomiphene citrate and 2.5 mg of letrozole on days 4 to 8, and 50 mg of clomiphene citrate on days 9 to 11. Patient no. 5 received no clomiphene citrate or letrozole. Luteinizing hormone (LH) blood level was 12.0, 18.0 and 14.6 mIU/mL, respectively, on day 10 and dropped to 4.9, 16.0 and 14.1 mIU/mL, respectively, on day 12.
Table 2 below provides a comparison of the efficacy of conventional Ganirelex/Cetrotide injectables treatment for IVF in the five representative patients from Example 1 with the home controlled ovarian hyperstimulation method described herein in the five representative patients from Example 2.

As to `COc1cccc(-c2c(C)n(Cc3c(F)cccc3C(F)(F)F)c(=O)n(C[C@H](NCCCC(=O)O)c3ccccc3)c2=O)c1F` [elagolix], the “effectiveness as GnRH antagonist in the patients” value in the assay with LH blood hormone level [1] is listed as “effective GnRH antagonist”.

For the molecule `CCN=C(NCC)NCCCC[C@H](NC(=O)[C@H](CC(C)C)NC(=O)[C@@H](CCCCNC(=NCC)NCC)NC(=O)[C@H](Cc1ccc(O)cc1)NC(=O)[C@H](CO)NC(=O)[C@@H](Cc1cccnc1)NC(=O)[C@@H](Cc1ccc(Cl)cc1)NC(=O)[C@@H](Cc1ccc2ccccc2c1)NC(C)=O)C(=O)N1CCC[C@H]1C(=O)N[C@H](C)C(N)=O` [Ganirelex, ganirelix acetate] (Ac-[d2Nal][dPhe(4-Cl)][d3Pal]SY[d(hArg(Et2))]L[hArg(Et2)]P[dA]-NH2), the “LH blood hormone level AFTER medication intake” value with LH blood hormone level [2] (Example 1, one value per patient (patients 1-5), after ganirelix injections, listed as Conventional Ganielex/Cetrotide Injectables) is 2.0 mIU/mL and 6.3 mIU/mL and 4.9 mIU/mL and 16.0 mIU/mL. The “LH blood hormone level BEFORE medication intake” value with LH blood hormone level [2] (Example 1, one value per patient (patients 1-5), before ganirelix injections, listed as Conventional Ganielex/Cetrotide Injectables) was 4.3 mIU/mL and 12.0 mIU/mL (2×) and 18.0 mIU/mL. The “% Drop in blood LH hormone level” value in the assay on LH blood hormone level [2] (Example 1, one value per patient (patients 1-5), listed as Conventional Ganielex/Cetrotide Injectables) is given as 3.4%. Further, the “Luteinizing hormone (LH) blood level” value in the assay with LH blood hormone level [2] (patient no. 1, day 10, half a syringe of 150 mcg/0.5 mL ganirelix acetate on days 11 and 12) is recorded as 4.3 mIU/mL; in the assay on LH blood hormone level [2] (patient no. 1, day 12, half a syringe of 150 mcg/0.5 mL ganirelix acetate on days 11 and 12), 2 mIU/mL; with LH blood hormone level [2] (patient no. 2, day 11, half a syringe of 150 mcg/0.5 mL ganirelix acetate on days 11 to 13), 12.0 mIU/mL; in the assay on LH blood hormone level [2] (patient no. 2, day 13, half a syringe of 150 mcg/0.5 mL ganirelix acetate on days 11 to 13) it was 6.3 mIU/mL; with LH blood hormone level [2] (patient no. 3, day 10, one third a syringe of 150 mcg/0.5 mL ganirelix acetate on days 11 to 13), 12.0 mIU/mL; with LH blood hormone level [2] (patient no. 3, day 12, one third a syringe of 150 mcg/0.5 mL ganirelix acetate on days 11 to 13) it was 4.9 mIU/mL. The “Luteinizing hormone (LH) blood level” value is 18.0 mIU/mL in the assay with LH blood hormone level [2] (patient no. 4, day 10, one third a syringe of 150 mcg/0.5 mL ganirelix acetate on days 11 to 13); 16.0 mIU/mL in the assay with LH blood hormone level [2] (patient no. 4, day 12, one third a syringe of 150 mcg/0.5 mL ganirelix acetate on days 11 to 13); 14.6 mIU/mL in the assay on LH blood hormone level [2] (patient no. 5, day 10, one third a syringe of 150 mcg/0.5 mL ganirelix acetate on days 11 to 13, no clomiphene citrate or letrozole); 14.1 mIU/mL in the assay with LH blood hormone level [2] (patient no. 5, day 12, one third a syringe of 150 mcg/0.5 mL ganirelix acetate on days 11 to 13, no clomiphene citrate or letrozole). Also, the “drop in LH blood hormone levels” value in the assay on LH blood hormone level [2] (patient no. 1, day 10 to day 12) worked out at 53.5%; with LH blood hormone level [2] (patient no. 2, day 11 to day 13), 47.5%; with LH blood hormone level [2] (patient no. 3, day 10 to day 12), 59.25%; in the assay with LH blood hormone level [2] (patient no. 4, day 10 to day 12) it was 11.1%; in the assay with LH blood hormone level [2] (patient no. 5, day 10 to day 12), 3.4%.
